Earlier results on one compound are cited in patent publication US20170266090A1, “ANTIMICROBIAL COMPOSITIONS THAT ARE DERMATOLOGICALLY NON-DRYING” (Marvel Technologies USA, LLC, priority 2016, published 2017).

For the data set the following is noted: background statement, no source given.

For `CCO` [Ethanol], the Drying time entry is “eight to thirteen”.
